This note sets out measurements from PMC9284121, “Florfenicol-Polyarginine Conjugates Exhibit Promising Antibacterial Activity Against Resistant Strains” (Frontiers in Chemistry, 2022).

≈ marks a conversion by molar mass, not a printed value. Where a SMILES comes first, the peptide text is derived from it.

Holding throughout (assay): microbe, parasite or virus in culture
The test system of assay [1] is 10 strains tested (E. coli, S. aureus, MRSA, clinical E. coli strains). Format: cell-based. Here is the method: (§1) All the florfenicol-polyarginine conjugates were tested against Gram-positive and Gram-negative bacteria, including MRSA (ATCC 43300), S. aureus (ATCC 25923), E. coli (ATCC 25922), clinical strains of E. coli (2019XJ06, 2019XJ25, 2018XJ108, 2018XJ105, 2018XJ30) and clinical strains of florfenicol resistant E. coli (2017XJ30, 2019XJ20).
(§2) Gram-negative E. coli (ATCC 25922), clinical strains of E. coli (2019XJ06, 2019XJ25, 2018XJ108, 2018XJ105, 2018XJ30) and clinical strains of florfenicol resistant E. coli (2017XJ30, 2019XJ20) and Gram-positive MRSA (ATCC 43300) and S. aureus (ATCC 25923) were maintained in 50% glycerol at −80°C up to the time of use. The bacterial strains were cultured in Muller-Hinton broth (Guangdong Huan Kai Microbial Sci. &Tech. Co., Ltd. in China) media. Mueller-Hinton agar (Guangdong Huan Kai Microbial Sci. & Tech. Co., Ltd. in China) was used as growth medium in solid media.
(§3) CLSI guidelines were followed for determining MICs of all florfenicol-polyarginine conjugates by the broth microdilution method. The required bacterial (E. coli, S. aureus and MRSA) single colony was inoculated into Muller-Hinton broth (MHB) and cultured for 4–6 h. And then, the bacteria were adjusted to 10^6 CFU/ml in cultures. All compounds were prepared into a stock solution at a concentration of 0.1 mol/L with DMSO. The stock solutions were then diluted to required concentration (100, 50, 25, 12.5, 6.25, 3.125, 1.56, 0.78, 0.39 μmol/L) with MHB media. Subsequently, a 96 well plate was filled with these dilutions and 10^6 CFU/ml bacterial suspension. The diluted compounds of different concentrations (100 µl) were first added to 96 well plate, and then 100 µl bacterial dilutions (10^6 CFU/ml) was added. The negative and positive controls were 200 µl of MHB media and 100 µl of bacterial suspension combined with 100 µl of MHB media, respectively. The experiment of each compound was repeated three times, and each experiment was at least twice repeated. The 96 well plates were incubated at 37°C for 16–24 h. MIC indicated antibacterial activity. Florfenicol was used as a control drug.

The subject of assay [2] is E. coli clinical strain 2018XJ108. Format: cell-based, Escherichia coli. As to conditions: clinical strain 2018XJ108. Here is the method:
as §1, §2, §3

Assay [3] concerns E. coli clinical strain 2018XJ105. It counts as cell-based, Escherichia coli. Conditions: clinical strain 2018XJ105. Here is the method:
as §1, §2, §3

Assay [4] deals with florfenicol resistant E. coli clinical strain 2019XJ20. It counts as cell-based, Escherichia coli. Conditions: florfenicol resistant clinical strain 2019XJ20. Here is the method:
as §1, §2, §3

The subject of another assay is E.coli (ATCC 25922). Format: cell-based, Escherichia coli. As to conditions: ATCC 25922. Here is the method:
as §1, §2, §3

In assay [5] the test system is E. coli clinical strain 2018XJ30. It counts as cell-based, Escherichia coli. Conditions: clinical strain 2018XJ30. Here is the method: as §1, §2, §3
Assay [6] deals with florfenicol resistant E. coli clinical strain 2017XJ30. Format: cell-based, Escherichia coli. As to conditions: florfenicol resistant clinical strain 2017XJ30. Here is the method:
as §1, §2, §3

Assay [7] has as its system E. coli clinical strain 2019XJ25. It counts as cell-based, Escherichia coli. Conditions: clinical strain 2019XJ25. On the procedure:
as §1, §2, §3

For assay [8], the system named is E. coli clinical strain 2019XJ06. It counts as cell-based, Escherichia coli. As to conditions: clinical strain 2019XJ06. On the procedure:
as §1, §2, §3

The next assay has as its system MRSA (ATCC 43300). Format: cell-based, methicillin-resistant S. aureus. Conditions: ATCC 43300. Here is the method:
as §1, §2, §3

For another assay, the system named is S. aureus (ATCC 292130). It counts as cell-based, Staphylococcus aureus. As to conditions: ATCC 292130.

`N=C(N)NCCC[C@H](NC(=O)[C@H](CCCNC(=N)N)NC(=O)[C@H](CCCNC(=N)N)NC(=O)[C@H](CCCNC(=N)N)NC(=O)[C@H](CCCNC(=N)N)NC(=O)[C@@H](N)CCCNC(=N)N)C(N)=O` [Compound D5]: the MIC is 25 to 100 µM in [1]; 100 µM (≈ 95.4 µg/mL) in assay [2]; 100 µM (≈ 95.4 µg/mL) in [3]; 100 µM (≈ 95.4 µg/mL) in assay [4]; 100 µM (≈ 95.4 µg/mL) in the assay on E.coli (ATCC 25922); 100 µM (≈ 95.4 µg/mL) in assay [5]. The MIC in assay [6] turned out to be 100 µM (≈ 95.4 µg/mL); in [7] it was 100 µM (≈ 95.4 µg/mL); in [8], 100 µM (≈ 95.4 µg/mL); in the assay with MRSA (ATCC 43300), 50 µM (≈ 47.7 µg/mL); against S. aureus (ATCC 292130) it was 50 µM (≈ 47.7 µg/mL).

As for `N=C(N)NCCC[C@H](NC(=O)[C@@H](N)CCCNC(=N)N)C(N)=O` [Compound D3] (H-Arg-Arg-NH2), the MIC (in [2]; in assay [3]; in [4]; in the assay with E.coli (ATCC 25922); in assay [5]; in assay [6]) was more than 100 µM in each case. In addition, the MIC (in [7]; in assay [8]; against MRSA (ATCC 43300); with S. aureus (ATCC 292130)) was more than 100 µM throughout.

Take `CS(=O)(=O)c1ccc([C@@H](OC(=O)CCCC(=O)N[C@@H](CCCNC(=N)N)C(N)=O)[C@@H](CF)NC(=O)C(Cl)Cl)cc1` [Compound E8]: the MIC (in [2]; in assay [3]; in [4]; against E.coli (ATCC 25922); in assay [5]; in [6]) was more than 100 µM in each case. Also, the MIC (in [7]; in assay [8]; against MRSA (ATCC 43300); against S. aureus (ATCC 292130)) was more than 100 µM in each case.

For the compound `N=C(N)NCCC[C@H](NC(=O)[C@H](CCCNC(=N)N)NC(=O)[C@H](CCCNC(=N)N)NC(=O)[C@H](CCCNC(=N)N)NC(=O)[C@H](CCCNC(=N)N)NC(=O)[C@H](CCCNC(=N)N)NC(=O)[C@H](CCCNC(=N)N)NC(=O)[C@@H](N)CCCNC(=N)N)C(N)=O` [Compound D6], the MIC is 25 to 100 µM in assay [1]; 50 µM (≈ 63.3 µg/mL) in [2]; 50 µM (≈ 63.3 µg/mL) in assay [3]; 50 µM (≈ 63.3 µg/mL) in [4]; 50 µM (≈ 63.3 µg/mL) in the assay with E.coli (ATCC 25922); 50 µM (≈ 63.3 µg/mL) in assay [5]. Further, the MIC was 50 µM (≈ 63.3 µg/mL) in assay [6]; 50 µM (≈ 63.3 µg/mL) in assay [7]; 50 µM (≈ 63.3 µg/mL) in [8]; 25 µM (≈ 31.7 µg/mL) against MRSA (ATCC 43300); 25 µM (≈ 31.7 µg/mL) in the assay on S. aureus (ATCC 292130).

On to `COC(=O)[C@@H](N)CCCNC(=N)N` [Compound D1], for which the MIC (in [2]; in assay [3]; in assay [4]; against E.coli (ATCC 25922); in assay [5]; in [6]) was more than 100 µM throughout. Also, the MIC (in [7]; in [8]; with MRSA (ATCC 43300); against S. aureus (ATCC 292130)) was more than 100 µM in each case.

For the compound `CS(=O)(=O)c1ccc([C@@H](OC(=O)CCC(=O)N[C@@H](CCCNC(=N)N)C(N)=O)[C@@H](CF)NC(=O)C(Cl)Cl)cc1` [Compound E2], the MIC in assay [2] was 25 µM (≈ 15.3 µg/mL); in assay [3], 25 µM (≈ 15.3 µg/mL); in assay [4] it was more than 100 µM; against E.coli (ATCC 25922), 25 µM (≈ 15.3 µg/mL); in assay [5], 25 µM (≈ 15.3 µg/mL); in assay [6], more than 100 µM. Also, the MIC (in assay [7]; in assay [8]; in the assay on MRSA (ATCC 43300); with S. aureus (ATCC 292130)) was 25 µM (≈ 15.3 µg/mL) in each case.

For `N=C(N)NCCC[C@H](NC(=O)[C@H](CCCNC(=N)N)NC(=O)[C@H](CCCNC(=N)N)NC(=O)[C@@H](N)CCCNC(=N)N)C(N)=O` [Compound D4] (H-RRRR-NH2), the MIC (in assay [2]; in assay [3]; in [4]; in the assay on E.coli (ATCC 25922); in [5]; in [6]) was more than 100 µM each time. Moreover, the MIC (in assay [7]; in assay [8]; against MRSA (ATCC 43300); with S. aureus (ATCC 292130)) was more than 100 µM throughout.

Take `COC(=O)[C@H](CCCNC(=N)N)NC(=O)CCCC(=O)O[C@H](c1ccc(S(C)(=O)=O)cc1)[C@@H](CF)NC(=O)C(Cl)Cl` [Compound E7]: the MIC (in assay [2]; in assay [3]; in assay [4]; in the assay with E.coli (ATCC 25922); in assay [5]; in assay [6]) was more than 100 µM throughout. In addition, the MIC (in [7]; in assay [8]; against MRSA (ATCC 43300); in the assay on S. aureus (ATCC 292130)) was more than 100 µM in each case.

Take `N=C(N)NCCC[C@H](N)C(N)=O` [Compound D2]: the MIC (in [2]; in [3]; in assay [4]; against E.coli (ATCC 25922); in [5]; in [6]) was more than 100 µM throughout. In addition, the MIC (in [7]; in assay [8]; with MRSA (ATCC 43300); in the assay on S. aureus (ATCC 292130)) was more than 100 µM each time.

On to `COC(=O)[C@H](CCCNC(=N)N)NC(=O)CCCCC(=O)O[C@H](c1ccc(S(C)(=O)=O)cc1)[C@@H](CF)NC(=O)C(Cl)Cl` [Compound E13], for which the MIC (in assay [2]; in assay [3]; in [4]; against E.coli (ATCC 25922); in assay [5]; in assay [6]) was more than 100 µM in each case. Further, the MIC (in [7]; in assay [8]; in the assay on MRSA (ATCC 43300); against S. aureus (ATCC 292130)) was more than 100 µM each time.

As for `COC(=O)[C@H](CCCNC(=N)N)NC(=O)CCC(=O)O[C@H](c1ccc(S(C)(=O)=O)cc1)[C@@H](CF)NC(=O)C(Cl)Cl` [Compound E1], the MIC is 25 µM (≈ 15.7 µg/mL) in assay [2]; 25 µM (≈ 15.7 µg/mL) in assay [3]; more than 100 µM in [4]; 25 µM (≈ 15.7 µg/mL) against E.coli (ATCC 25922); 25 µM (≈ 15.7 µg/mL) in assay [5]; more than 100 µM in assay [6]. The MIC in [7] was found to be 25 µM (≈ 15.7 µg/mL); in [8], 25 µM (≈ 15.7 µg/mL); in the assay on MRSA (ATCC 43300) it was 50 µM (≈ 31.4 µg/mL); in the assay on S. aureus (ATCC 292130), 50 µM (≈ 31.4 µg/mL).

As to `CS(=O)(=O)c1ccc([C@@H](OC(=O)CCCCC(=O)N[C@@H](CCCNC(=N)N)C(N)=O)[C@@H](CF)NC(=O)C(Cl)Cl)cc1` [Compound E14], the MIC (in assay [2]; in assay [3]; in assay [4]; with E.coli (ATCC 25922); in [5]; in [6]) was more than 100 µM throughout. Also, the MIC (in assay [7]; in [8]; against MRSA (ATCC 43300); with S. aureus (ATCC 292130)) was more than 100 µM each time.
